What was measured:
AY27 cancer cell line [1] = assay: In vitro PDT in hypoxia; format: cell-based; conditions: 635 nm, 90 J cm−2, hypoxic 0.5-0.1% O2, 0.4 mg/mL human transferrin
Description: The cells were incubated for 90 minutes in premix of the photosensitizer and 0.4 mg/mL human transferrin (or without transferrin, as a control group) as described above for in vitro PDT. Dark toxicity and PDT effect of the photosensitizers on AY27 cell line under 635 nm (90 J cm−2) irradiation in the absence and presence of transferrin in normoxic (FIGS. 17A, 17B) and hypoxic (0.5-0.1% O2, FIGS. 17C, 17D) conditions. The cells were incubated with the photosensitizer and transferrin for 90 minutes. After that, the cells were irradiated and the medium was replaced with a fresh one (without photosensitizer and transferrin). On the next day (21 hours post-irradiation), viability of the cells was measured using Presto Blue viability assay, and percent of cell kill was calculated. The PDT effect shown is a result of subtraction of “photosensitizer alone” and “light alone” cell kill from the total PDT cell kill.
The cells were incubated for 90 minutes in premix of the photosensitizer and 0.4 mg/mL human transferrin (or without transferrin, as a control group) as described above for in vitro PDT. […] On the next day (21 hours post-irradiation), viability of the cells was measured using Presto Blue viability assay, and percent of cell kill was calculated. […]

[2] = Photobleaching / absorbance stability; format: physicochemical; conditions: 525 nm laser; 0.8 mg/mL transferrin
Description: Photobleaching was measured: (a) at wavelength in visible range maximal for each photosensitizer. This allows to estimate dynamics of amount of unbleached photosensitizer during irradiation; and (b) at 530, 635 and 808 nm. This allows estimating dynamics of unbleached photosensitizer available to exert PDT effect at these wavelengths as practically useful for PDT treatments.
(§1) Photosensitizers (10 uM) were dissolved in phosphate buffer+100 mM NaCl (pH=7.0) alone or in a buffer with 0.8 mg/mL of transferrin at a total volume of 1 mL. The mixture was then exposed to a 525 nm laser source (130 mW) and the absorbance at the maximal absorbance in visible range (432 nm for TLD1433, 425 nm for TLD143310 and 562 nm for TLDOsH2dppn) was measured at specific time points. The plot represents the absorbance ratio (absorbance of exposed samples/absorbance of unexposed sample) as a function of the number of incident photons per cm^−2. Decreasing absorbance ratio signifies bleaching of the photosensitizer.
as §1, with “530” for “the maximal absorbance in visible range (432”, “nm” for “nm for TLD1433, 425 nm for TLD143310 and 562 nm for TLDOsH2dppn)”
as §1, with “635” for “the maximal absorbance in visible range (432”, “nm” for “nm for TLD1433, 425 nm for TLD143310 and 562 nm for TLDOsH2dppn)”, “photosensitizer. […]” for “photosensitizer.”

AY27 cancer cell line [3] = assay: In vitro dark toxicity, Presto Blue cell kill; format: cell-based; conditions: 0.4 mg/mL human transferrin, 30 minutes
Description: (§2) The photosensitizer was pre-mixed with 0.4 mg/mL human transferrin and incubated for 1 hour at 37° C. In control group (no additional transferrin), equivalent volume of no-transferrin medium was added. The cells were subsequently incubated with the pre-mixes for 30 minutes (FIG. 12A) or 90 minutes (FIG. 12B). After that, the medium was replaced with a fresh one (without photosensitizer and transferrin). On the next day (21 hours post-irradiation), viability of the cells was measured using Presto Blue viability assay, and percent of cell kill was calculated.
as §2, with “minutes.” for “minutes (FIG. 12A) or 90 minutes (FIG. 12B).”

[Os+2].c1ccc2cc3nc4c5cccnc5c5ncccc5c4nc3cc2c1.c1ccc2nc(-c3ccc4ccccc4n3)ccc2c1.c1ccc2nc(-c3ccc4ccccc4n3)ccc2c1 [TLDOsH2dppn]
PDT effect under hypoxic conditions, effect of transferrin (AY27 cancer cell line [1]): ensured PDT effect | photobleaching, absorbance ratio at 530 nm [2]: bleaching of the photosensitizers was reduced | photobleaching, absorbance ratio at 635 nm [2]: bleaching of the photosensitizers was reduced | photobleaching, absorbance ratio at 808 nm [2]: bleaching of the photosensitizers was reduced | dark toxicity, effect of transferrin (AY27 cancer cell line [3]): decreases dark toxicity

From patent US10111936B2, “Metal-glycoprotein complexes and photodynamic therapy of immune privileged sites with same” (Theralase Technologies, Inc., priority 2015, dated 2018)
